The values that follow come from patent US20220411726A1, “STABILIZED LIQUID BORON-FREE ENZYME COMPOSITIONS” (Novozymes A/S, priority 2019, published 2022).

Data set [1] concerns Mannanase. As to the kind of experiment: Increase in enzyme solubility (supernatant enzyme activity), mannanase. It is filed as physicochemical. The following applies: mannanase suspension, 2 hours at room temperature. The protocol:
(§1) An aqueous enzyme solution produced via fermentation of microorganism and recovered by removal of cells were concentrated using ultrafiltration to form a supersaturated protein solution. The solution was cooled below 5° C. for more than 24 hours to generate protein precipitate. The protein precipitate was suspended in the cold solution by shaking before use. Water and 1,2-hexanediol or glycerol were added to the protein suspension to obtain a diluted protein suspension with the indicated concentration of 1,2-hexanediol or glycerol while keeping the dilution of the protein suspension constant (70% w/w protein suspension to 30% w/w water/1,2-hexanediol/glycerol). The diluted protein suspensions were mixed for 2 hours at room temperature on a magnetic stirred followed by centrifugation to generate a clear supernatant. The obtained supernatant was analyzed for enzyme activity. The data in Table 5 show how much the enzyme solubility (enzyme activity) has increased compared to the reference sample, which only contains water.

For data set [2], the system named is protease (Fermax from Novozymes). The experiment in a line: Turbidity of commercial liquid protease product after addition of 1,2-hexanediol (nephelometer). It is filed as physicochemical. As for the experimental part: (§2) The transparency (turbidity) of two commercial liquid protease (Fermax from Novozymes) and amylase (Fortiva Revo from Novozymes) products were evaluated before and after addition of different amounts of 1,2-hexanediol.

For data set [3], the system named is aqueous protease solution. The experiment in a line: Physical stability of a protease solution with 1,2-hexanediol or glycerol (visual inspection and NTU). The class given is physicochemical. Particulars: additive 10% w/w; protease 6.8% w/w; 4 weeks at 25° C. As for the experimental part: (§3) Physical stability is the ability to maintain a transparent, preferably clear, composition. This may be evaluated by visual inspection, or by centrifugation. For example, the liquid composition may centrifugated at 1200 G for 10 minutes to determine if a pellet (solid phase) is formed. Alternatively, transparency may be measured as turbidity or haziness, by using a nephelometer to measure NTU to determine light scattering.
(§4) An aqueous protease solution and an aqueous pectate lyase solution were formulated with 10% w/w water, 10% w/w 1,2-hexanediol, or 10% w/w glycerol to a final enzyme protein concentration of 6.8% w/w and 8.1% w/w, respectively. The physical stability was evaluated after storage for 4 weeks at 25° C., by visual inspection and by NTU measurements, as shown in Table 4.

For data set [4], the system named is Aspergillus niger, Candida parapsilosis, Candida famata. As to the kind of experiment: Microbial stability challenge of protease formulation, bottle 3. It is filed as cell-based. The following applies: inoculated to 10^5 CFU/mL. The protocol: (§5) An aqueous protease (subtilisin) solution was formulated with 40% w/w glycerol at pH 6.0 to a final enzyme protein concentration of 5.5% w/w. Two samples were prepared by adding 4% w/w 1,2-hexanediol or 0.3% w/w 1,2-octanediol to the protease solution.
(§6) This was done by challenging the formulations with the microorganisms in Table 7. Each of the three bottles in Table 8 were inoculated to a total of 10^5 CFU/mL of the test microorganisms.
(§7) The bottles were analyzed for CFU/mL after 2 and 4 weeks of incubation at 20-25° C. CFU (colony forming units) per mL was measured using standard microbiological methods.

In data set [5] the test system is Lactobacillus buchneri, Lactobacillus para paracasei. As to the kind of experiment: Microbial stability challenge of protease formulation, bottle 2. The following applies: inoculated to 10^5 CFU/mL. It is filed as cell-based. As for the experimental part:
as §5, §6, §7

Data set [6] concerns Protease. The experiment in a line: Increase in enzyme solubility (supernatant enzyme activity), protease. It is filed as physicochemical. Particulars: protease suspension, 2 hours at room temperature. The protocol: as §1
The subject of data set [7] is Escherichia coli, Pseudomonas aeruginosa, Salmonella havana, Acinetobacter spp., Staphylococcus aureus, Staphylococcus xylosus, Enterococcus faecium. The experiment in a line: Microbial stability challenge of protease formulation, bottle 1. The following applies: inoculated to 10^5 CFU/mL. It is filed as cell-based. As for the experimental part:
as §5, §6, §7

Data set [8] relates to aqueous pectate lyase solution. The experiment in a line: Physical stability of a pectate lyase solution with 1,2-hexanediol or glycerol (visual inspection and NTU). It is filed as physicochemical. Particulars: additive 10% w/w; pectate lyase 8.1% w/w; 4 weeks at 25° C. As for the experimental part: as §3, §4
Data set [9] deals with Pectate lyase. As to the kind of experiment: Increase in enzyme solubility (supernatant enzyme activity), pectate lyase. The class given is physicochemical. The following applies: pectate lyase suspension, 2 hours at room temperature. The protocol: as §1
In data set [10] the test system is protease (subtilisin). The experiment in a line: Enzymatic stability: residual activity of protease after 4 weeks storage. It is filed as physicochemical. As for the experimental part: Enzymatic stability is the ability to maintain enzymatic activity after storage. This may be determined by measuring the enzymatic activity before and after storage (for example, 4 weeks storage at 25° C.) to determine how much activity is lost. For practical purposes, the residual activity may be determined by comparing the activity of a stored sample and a frozen reference sample, which are analyzed at the same time to eliminate analytical day-to-day variation.
An aqueous protease (subtilisin) solution was produced via fermentation of microorganism, recovered by removal of cells and concentrated using ultrafiltration. Water and 1,2-hexanediol were added to the protease solution to obtain a diluted protease solution with the indicated concentration of 1,2-hexanediol while keeping the dilution of the protease solution constant (70 w/w % protease solution to 30% w/w water/1,2-hexanediol). The diluted protease solutions were incubated in closed vials at −18° C., 25° C. and 40° C. for 4 weeks. The protease activity was measured in the stored samples and residual activity calculated by using protease activity in samples stored at −18° C. as reference.

Data set [11] concerns aqueous lipase solution. As to the kind of experiment: Physical stability of a lipase solution with 1,2-hexanediol or 1,2-octanediol (visual inspection). It is filed as physicochemical. The following applies: lipase 3% w/w, 15% w/w sorbitol, 6% w/w MPG. As for the experimental part: as §3
An aqueous lipase solution was formulated with 15% w/w sorbitol and 6% w/w MPG to a final enzyme protein concentration of 3% w/w. Two samples were prepared by adding 1% w/w 1,2-hexanediol or 0.3% w/w 1,2-octanediol to the lipase solution.

Data set [12] relates to amylase (Fortiva Revo from Novozymes). The experiment in a line: Turbidity of commercial liquid amylase product after addition of 1,2-hexanediol (nephelometer). It is filed as physicochemical. The protocol:
as §2

Data set [13] deals with aqueous amylase solution. As to the kind of experiment: Physical stability of an amylase solution with 1,2-octanediol (visual inspection and NTU). It is filed as physicochemical. The following applies: 0.3% w/w 1,2-octanediol, amylase 4.3% w/w, 40% w/w glycerol, pH 4.8. The protocol: as §3
An aqueous amylase solution was formulated with 40% w/w glycerol at pH 4.8 to a final enzyme protein concentration of 4.3% w/w. A sample was prepared by adding 0.3% w/w 1,2-octanediol to the amylase solution, and the physical stability was evaluated by visual inspection and NTU measurement, as shown in Table 2.

[14] abbreviates: 4% w/w 1,2-hexanediol, 2 weeks at 20-25° C.
Setting [15] is: 4% w/w 1,2-hexanediol, 4 weeks at 20-25° C.
[16] abbreviates: 0.3% w/w 1,2-octanediol, 2 weeks at 20-25° C.
[17] abbreviates: 0.3% w/w 1,2-octanediol, 4 weeks at 20-25° C.

Where only a bound is given, the exact number is not on record here.

In the case of `CCCCC(O)CO` (stereo not drawn) [1,2-hexanediol], the “Increase in enzyme solubility (enzyme activity) compared to the reference sample” value in [1] (additive 2% w/w) is 7%; in data set [1] (additive 5% w/w), 48%; in [6] (additive 2% w/w), 11%; in data set [6] (additive 5% w/w) it was 47%; in [9] (additive 2% w/w), 32%; in data set [9] (additive 5% w/w) it was 66%. The Turbidity in [2] (5% w/w 1,2-hexanediol added to liquid protease product) is reported as 21.2 NTU; in data set [2] (10% w/w 1,2-hexanediol added to liquid protease product) it was 11.7 NTU; in data set [3], 9.4 NTU; in data set [8], 31.2 NTU; in data set [12] (5% w/w 1,2-hexanediol added to liquid amylase product), 17.2 NTU; in data set [12] (10% w/w 1,2-hexanediol added to liquid amylase product), 14.6 NTU. The Visual score result was “clear” in data set [3] and “haze” in [8]. The “Microbial stability, measured as CFU/mL” value in [4] (setting [14]), in [4] (setting [15]), in [5] (setting [14]), in data set [5] (setting [15]), in [7] (setting [14]) and in data set [7] (setting [15]) was <1.0 × 10^2 CFU/mL throughout. Also, the “Residual activity of protease after 4 weeks storage” value in [10] (2% w/w 1,2-hexanediol, 25° C.) was 48%; in data set [10] (2% w/w 1,2-hexanediol, 40° C.) it was 8%; in [10] (2% w/w 1,2-hexanediol, −18° C. (reference temperature for the calculation)), 100%; in [10] (5% w/w 1,2-hexanediol, 25° C. (room temperature)), 77%; in [10] (5% w/w 1,2-hexanediol, 40° C.) it was 14%; in data set [10] (5% w/w 1,2-hexanediol, −18° C. (reference temperature for the calculation)), 100%. Also, the “Physical stability by visual inspection” value is recorded as “clear” in [11] (1% w/w 1,2-hexanediol, 4 weeks at 5° C.); “haze” in data set [11] (1% w/w 1,2-hexanediol, 4 weeks at 25° C.); “precipitate” in data set [11] (1% w/w 1,2-hexanediol, 4 weeks at 40° C.).
As for `CCCCCCC(O)CO` (stereo not drawn) [1,2-octanediol], the “Microbial stability, measured as CFU/mL” value is reported as 7.0 × 10^2 CFU/mL in data set [4] (setting [16]); <1.0 × 10^2 CFU/mL in [4] (setting [17]); <1.0 × 10^2 CFU/mL in data set [5] (setting [16]); <1.0 × 10^2 CFU/mL in data set [5] (setting [17]); 3.0 × 10^2 CFU/mL in [7] (setting [16]); <1.0 × 10^2 CFU/mL in data set [7] (setting [17]). Also, the Turbidity in data set [13] (4 weeks at 5° C.) is reported as 19.1 NTU; in [13] (4 weeks at 25° C.), 11.9 NTU; in [13] (4 weeks at 40° C.), 12.7 NTU. The Visual score entry in [13] (4 weeks at 5° C.), in data set [13] (4 weeks at 25° C.) and in [13] (4 weeks at 40° C.) was “haze” each time. For the same compound, the “Physical stability by visual inspection” value in [11] (0.3% w/w 1,2-octanediol, 4 weeks at 5° C.) was “clear”; in data set [11] (0.3% w/w 1,2-octanediol, 4 weeks at 25° C.) it was “clear”; in [11] (0.3% w/w 1,2-octanediol, 4 weeks at 40° C.), “haze”.
Take `OCC(O)CO` [Glycerol, glycerol, reference compound]: the “Increase in enzyme solubility (enzyme activity) compared to the reference sample” value was determined as 10% in data set [1] (additive 2% w/w); 41% in data set [1] (additive 5% w/w); 0% in data set [6] (additive 2% w/w); 3% in data set [6] (additive 5% w/w); 10% in data set [9] (additive 2% w/w); 32% in data set [9] (additive 5% w/w). The Turbidity was 71.2 NTU in [3] and 540 NTU in data set [8]. Moreover, the Visual score entry in data set [3] and in data set [8] was “precipitate” throughout.
